Data as given in patent US20030166692A1, “Composition useful as anticancer drug and radiosensitizer” (PHARMGENIA CO., LTD. of Developmental Genetics Laboratory,, priority 2002, published 2003).

Assays:
[1] = test system: human A549 lung cancer cell line; assay: Colony formation of A549 cells, compound followed by γ-irradiation; format: cell-based; conditions: for The survival rate of cancer cells (combination therapy): colony formation vs un-irradiated compound-treated cells
Method: (§1) Using the same method as described in Example 1, human A549 and NCI-H460 lung cancer cell lines (obtained from ATCC) were incubated in RPMI1640 culture medium.
(§2) Then, cancer cells were collected and placed into 60 mm (in diameter) petri dishes, 300 cells per petri dish. After the cancer cells were incubated in water-containing CO2 incubator at 37° C. for 24 hours, 1 ng/ml and 0.1 ng/ml of the compound of formula I dissolved in DMSO were treated to human NCI-H460 and A549 cells, respectively. Four (4) hours later, the cancer cells were irradiated with a different amount of γ-rays using ^137Cs γ-rays source (Atomic Energy of Canada, Ltd., Canada). After cultivated for 10 days, the colonies were dyed with 1% methylene blue. Colonies having diameters of 200 μm or more were counted using Colony Counter (Imaging Products, Chantilly, Va.).
(§3) The results regarding colony formation are shown in the following Tables 3 and 4, and FIGS. 3 and 4.

[2] = test system: human NCI-H460 lung cancer cell line; assay: MTT survival of NCI-H460 cancer cells after treatment with the compound of formula I; format: cell-based; conditions: for The survival rate of cancer cells: MTT, relative to DMSO control
Method: (§4) In this Example, the effect of the compound of formula I as an anticancer agent was evaluated in vitro using human NCI-H460 and SNU638 cancer cell lines.
(§5) The inventor purchased the compound of formula I from ChemBridge Corporation (San Diego, Calif.). Human NCI-H460 lung cancer cell line was obtained from ATCC (American Type Culture Collection), while human SNU638 gastric cancer cell line from KCLB (Korean Cell Line Bank).
(§6) Under […] at 37° C., the human NCI-H460 and SNU638 cancer cell lines were incubated for 4 days in RPMI1640 culture medium (GIBCO/BRL, Grand Island, N.Y.) containing 10% calf fetus serum, penicillin 100 units/ml, and streptomycin 100 μg/ml.
(§7) In the case of the NCI-H460 cell line, the compound of formula I was dissolved in DMSO (dimethyl sulfoxide) in order to make its concentration 0.1 ng/ml, 1 ng/ml, 10 ng/ml, 100 ng/ml, 1,000 ng/ml and 10,000 ng/ml, respectively. During incubation, the NCI-H460 cells were treated with each concentration of the compound of formula I, respectively.
(§8) Then, any surviving cancer cells were dyed with MTT [3-(4,5-dimethylthiazol-2-yl)-2,5-diphenyltetrazolium bromide] and quantified at 540 nm with a microplate reader.
(§9) Following Tables 1 and 2, and FIGS. 1 and 2, respectively show the survival rate of cancer cells, based on relative absorbance rate in reference to control (i.e. cancer cells treated with DMSO only). […] When treated with 1,000 ng/ml of the compound of formula I, about 80% (in the case of the NCI-H460 cell line) and 94% (in the case of the SNU638 cell line) of cancer cells were killed.

[3] = test system: human NCI-H460 lung cancer cell line; assay: Colony formation of NCI-H460 cells, compound followed by γ-irradiation; format: cell-based; conditions: for The survival rate of cancer cells (combination therapy): colony formation vs un-irradiated compound-treated cells
Method: as §1, §2, §3

[4] = test system: human SNU638 gastric cancer cell line; assay: MTT survival of SNU638 cancer cells after treatment with the compound of formula I; format: cell-based; conditions: for The survival rate of cancer cells: MTT, relative to DMSO control
Method: as §4, §5, §6
as §7, with “SNU638” for “NCI-H460”, “DMSO” for “DMSO (dimethyl sulfoxide)”, “concentration” for “concentration 0.1 ng/ml,”
as §8, §9

[5] = test system: NCI-H460 cells transplanted into mice; assay: Tumor volume of NCI-H460 cells transplanted into mice; format: in vivo
Method: Six (6) week old mice of BALB/cAnNCrj-nu/nu strain, which were obtained from Chales River Japan Inc. (Japan), were subcutaneously injected lung cancer cells (NCI-H460 cell line, 5×10^6 cells) to develop tumors.
Mice were selected whose tumor volume reached 120 mm^3, and subdivided into 4 groups each having 5 mice: Group 1 (control, treated with DMSO); Group 2 (treated only with 10 mg/kg of the compound of formula I); Group 3 (treated only with 5 Gy of irradiation); and Group 4 (treated with 10 mg/kg of the compound of formula I and 5 Gy of irradiation).
Five (5) times with 5 day intervals between each time, DMSO or the compound of formula I was subcutaneously injected to the mice of Groups 1, 2 and 4, and γ-rays were irradiated to the mice of Groups 3 and 4.
The compound of formula I was dissolved in DMSO to make its concentration 5 mg/ml. 40 μl of DMSO and the compound of formula I each were administered to Groups 1, 2 and 4, respectively. The mice of Group 4 were subcutaneously injected with the compound of formula I, and 4 hours later followed by irradiation. The change of tumor volume in each Group was observed 11 times with 3 to 5 days of interval for 42 days.

With CSC(=S)N/N=C(\c1ccccc1)c1ccccn1 [compound of formula I, N′-(phenyl-pyridin-2-yl-methylene)-hydrazine carbodithioic acid methyl ester] the “The survival rate of cancer cells (combination therapy)” value ([1]; 0.1 ng/ml compound then 1 Gy) was 53%, the “The survival rate of cancer cells (combination therapy)” value ([1]; 0.1 ng/ml compound then 3 Gy) was 10% and the “The survival rate of cancer cells (combination therapy)” value ([1]; 0.1 ng/ml compound then 5 Gy) was 2%. The “The survival rate of cancer cells (combination therapy)” value ([1]; 0.1 ng/ml compound then 7 Gy) was 1%, the cancer cells killed ([1]; 0.1 ng/ml followed by 1 Gy, in comparison with 0.1 ng/ml and no irradiation) was 47% and the “increased anticancer effect in comparison with 1 Gy of irradiation only” value ([1]; 0.1 ng/ml in combination with 1 Gy) was 32%. For the same molecule, the “radio-enhanced cancer treatment effect” value ([1]; 1 Gy or more irradiated, 0.1 ng/ml) was “significantly effective”, the “The survival rate of cancer cells” value ([2]; 0.1 ng/ml) was 90.2% and the cancer cells killed ([2]; 1 ng/ml) was “about 12%”. The “The survival rate of cancer cells” value ([2]; 1 ng/ml) was 87.7%, the “The survival rate of cancer cells” value ([2]; 10 ng/ml) was 51.3% and the “The survival rate of cancer cells” value ([2]; 100 ng/ml) was 36.6%. For the same molecule, the cancer cells killed ([2]; 1,000 ng/ml) was “about 80%”, the “The survival rate of cancer cells” value ([2]; 1,000 ng/ml) was 20% and the “The survival rate of cancer cells” value ([2]; 10,000 ng/ml) was 2%. The “The survival rate of cancer cells (combination therapy)” value ([3]; 1 ng/ml compound then 1 Gy) was 37.5%, the “The survival rate of cancer cells (combination therapy)” value ([3]; 1 ng/ml compound then 3 Gy) was 9% and the “The survival rate of cancer cells (combination therapy)” value ([3]; 1 ng/ml compound then 5 Gy) was 1%. For the same molecule, the “The survival rate of cancer cells (combination therapy)” value ([3]; 1 ng/ml compound then 7 Gy) was 0.01%, the cancer cells killed ([3]; 1 ng/ml followed by 1 Gy, in comparison with 1 ng/ml and no irradiation) was 62.5% and the “enhanced anticancer effect in comparison with 1 Gy of irradiation” value ([3]; 1 ng/ml in combination with 1 Gy) was 27.5%. For the same molecule, the “radio-enhanced cancer treatment effect” value ([3]; 1 Gy or more irradiated, 1 ng/ml) was “significantly effective”, the cancer cells killed ([4]; 1 ng/ml) was roughly 35% and the “The survival rate of cancer cells” value ([4]; 1 ng/ml) was 64.46%. The “The survival rate of cancer cells” value ([4]; 10 ng/ml) was 53.22%, the “The survival rate of cancer cells” value ([4]; 100 ng/ml) was 46.41% and the cancer cells killed ([4]; 1,000 ng/ml) was roughly 94%. The “The survival rate of cancer cells” value ([4]; 1,000 ng/ml) was 5.71%, the “The survival rate of cancer cells” value ([4]; 10,000 ng/ml) was 3.87% and the tumor volume ([5]; Combination: 10 mg/kg s.c. + 5 Gy irradiation, 10 days) was 133 mm^3. For the same molecule, the tumor volume ([5]; Combination: 10 mg/kg s.c. + 5 Gy irradiation, 13 days) was 268 mm^3, the tumor volume ([5]; Combination: 10 mg/kg s.c. + 5 Gy irradiation, 18 days) was 379 mm^3 and the tumor volume ([5]; Combination: 10 mg/kg s.c. + 5 Gy irradiation, 21 days) was 539 mm^3. It also gave a tumor volume ([5]; Combination: 10 mg/kg s.c. + 5 Gy irradiation, 24 days) of 710 mm^3, a tumor volume ([5]; Combination: 10 mg/kg s.c. + 5 Gy irradiation, 26 days) of 760 mm^3 and a tumor volume ([5]; Combination: 10 mg/kg s.c. + 5 Gy irradiation, 29 days) of 862 mm^3. For the same molecule, the tumor volume ([5]; Combination: 10 mg/kg s.c. + 5 Gy irradiation, 33 days) was 950 mm^3, the tumor volume ([5]; Combination: 10 mg/kg s.c. + 5 Gy irradiation, 36 days) was 1,086 mm^3 and the tumor volume ([5]; Combination: 10 mg/kg s.c. + 5 Gy irradiation, 39 days) was 1,079 mm^3. For the same molecule, the tumor volume ([5]; Combination: 10 mg/kg s.c. + 5 Gy irradiation, 42 days) was 1,164 mm^3, the “increase rate of the tumor volume” value ([5]; Group 2 (compound only, 10 mg/kg) vs Group 1 (control)) was “much lower than in Group 1” and the “increase in tumor volume” value ([5]; Group 4 (compound + 5 Gy irradiation) compared to Group 3 (irradiation only)) was “little increase in tumor volume”. The tumor volume ([5]; compound only, 10 mg/kg s.c., 10 days) was 179 mm^3, the tumor volume ([5]; compound only, 10 mg/kg s.c., 13 days) was 258 mm^3 and the tumor volume ([5]; compound only, 10 mg/kg s.c., 18 days) was 614 mm^3. The tumor volume ([5]; compound only, 10 mg/kg s.c., 21 days) was 923 mm^3, the tumor volume ([5]; compound only, 10 mg/kg s.c., 24 days) was 1,274 mm^3 and the tumor volume ([5]; compound only, 10 mg/kg s.c., 26 days) was 1,766 mm^3. The tumor volume ([5]; compound only, 10 mg/kg s.c., 29 days) was 2,211 mm^3, the tumor volume ([5]; compound only, 10 mg/kg s.c., 33 days) was 2,759 mm^3 and the tumor volume ([5]; compound only, 10 mg/kg s.c., 36 days) was 3,374 mm^3. For the same molecule, the tumor volume ([5]; compound only, 10 mg/kg s.c., 39 days) was 3,787 mm^3 and the tumor volume ([5]; compound only, 10 mg/kg s.c., 42 days) was 4,133 mm^3.
